Reference: patent publication US9591856B2, “Fungicide compositions comprising fluopyram, at least one succinate dehydrogenase (SDH) inhibitor and optionally at least one triazole fungicide” (priority 2012, dated 2017)

Key:
[1] = system: Alternaria alternata SDH-mutants; conditions: in vitro; Avenot et al., Crop Protection 29 (2010) 643-651; cited from earlier work
[2] = system: Drechslera tritici-repentis (DTR, also named Pyrenophora tritici-repentis); assay: Curative potential against Drechslera tritici-repentis (tan spot) in winter wheat; format: in vivo; conditions: infected leaf area 21 days after inoculation; for Efficacy [% Abbott] 1 dai: application 1 day after inoculation; for Efficacy [% Abbott] 4 dai: application 4 days after inoculation
[3] = system: Septoria tritici (Mycosphaerella graminicola); assay: Protective and curative potential against Septoria tritici in winter wheat, quantification of Septoria-DNA (SeptoCast); format: in vivo; conditions: 21 days after inoculation, dose rates Table 5
[4] = system: Pyrenophora tritici-repentis (PYRNTR); assay: Pyrenophora tritici-repentis test (wheat), field trial DEU-NWU3; format: in vivo; conditions: sprayed twice, 43 DAB, BBCH 83, 75 g/ha (I), 75 g/ha (II), 150 g/ha (III), 75 + 75 + 150 g/ha combination; for Rating Scale: % Rating Type: Mean (Plant Part Rated: FL-0-1): disease rating, untreated control 2.8
[5] = system: Septoria tritici (Mycosphaerella graminicola); assay: Protective and curative potential against Septoria tritici in winter wheat, visual assessment of infested leaf area; format: in vivo; conditions: assessed 21 days after inoculation, dose rates Table 5: BIX 0.6, BIX+FLU 0.75, BIX+PTZ 1, BIX+FLU+PTZ 1 l/ha
[6] = system: Septoria tritici (SEPTTR); assay: Septoria tritici test (wheat), field trial FRA-AJ28; format: in vivo; conditions: sprayed twice, 47 DAB, BBCH 77, 75 g/ha (I), 75 g/ha (II), 150 g/ha (III), 75 + 75 + 150 g/ha combination; for Rating Scale: % Rating Type: Mean (Plant Part Rated: LEAF): disease rating, untreated control 95.0
[7] = system: Leptosphaeria nodorum (LEPTNO); assay: Leptosphaeria nodorum test (wheat), field trial DEU-S826; format: in vivo; conditions: sprayed twice, 18 DAB, BBCH 69, 75 g/ha (I), 75 g/ha (II), 150 g/ha (III), 75 + 75 + 150 g/ha combination; for Rating Scale: % Rating Type: Mean (Plant Part Rated: LEALOW): disease rating, untreated control 23.1
[8] = solo compound at 97.5 g a.i./ha
[9] = curative, application 1 day after inoculation
[10] = curative, application 4 days after inoculation
[11] = curative, application 8 days after inoculation
[12] = curative, application 11 days after inoculation
[13] = preventive, application 1 day before inoculation
[14] = preventive, application 4 days before inoculation
[15] = preventive, application 8 days before inoculation
[16] = preventive, application 11 days before inoculation

SMILES	effect on mycelial growth of boscalid-resistant isolates carrying SDH-mutations [1]	Efficacy [% Abbott] 1 dai [2, 8] [% Abbott]	Efficacy [% Abbott] 4 dai [2, 8] [% Abbott]	Efficacy [% Abbott] 1 dai ([2]; solo compound at 125 g a.i./ha) [% Abbott]	Efficacy [% Abbott] 4 dai ([2]; solo compound at 125 g a.i./ha) [% Abbott]	Rating Scale: % Rating Type: Mean (Plant Part Rated: FL-0-1) [4] [%]	% ABBOTT [4] [%]	Efficacy [%] % found [4] [%]	Rating Scale: % Rating Type: Mean (Plant Part Rated: LEAF) [6] [%]	% ABBOTT [6] [%]	Efficacy [%] % found [6] [%]	Rating Scale: % Rating Type: Mean (Plant Part Rated: LEALOW) [7] [%]	% ABBOTT [7] [%]	Efficacy [%] % found [7] [%]	also measured
CC(C)CC(C)c1sccc1NC(=O)c1cn(C)nc1C(F)(F)F (stereo not shown) [penthiopyrad]	not affected	–	–	–	–	–	–	–	–	–	–	–	–	–	–
Cn1cc(C(=O)Nc2ccccc2-c2cc(F)c(F)c(F)c2)c(C(F)F)n1 [Fluxapyroxad, fluxapyroxad]	–	93	24	94	32	–	–	–	–	–	–	–	–	–	–
Cn1cc(C(=O)Nc2ccc(F)cc2-c2ccc(Cl)c(Cl)c2)c(C(F)F)n1 [Bixafen, bixafen]	–	91	38	91	32	2.3	18.2	18.2	36.3	61.8	61.8	14.7	36.5	36.5	DNA Quantification [Septoria DNA], relative copynumbers, 1 dai [3, 9]: 135 n; DNA Quantification [Septoria DNA], relative copynumbers, 4 dai [3, 10]: 416 n; DNA Quantification [Septoria DNA], relative copynumbers, 8 dai [3, 11]: 10421 n; DNA Quantification [Septoria DNA], relative copynumbers, 11 dai [3, 12]: 19806 n; DNA Quantification [Septoria DNA], relative copy numbers, 1 dbi [3, 13]: 120 n; DNA Quantification [Septoria DNA], relative copy numbers, 4 dbi [3, 14]: 141 n; DNA Quantification [Septoria DNA], relative copy numbers, 8 dbi [3, 15]: 428 n; DNA Quantification [Septoria DNA], relative copy numbers, 11 dbi [3, 16]: 2853 n; Visual assessment [%] ABBOTT, 1 dai [5, 9]: 100%; Visual assessment [%] ABBOTT, 4 dai [5, 10]: 100%; Visual assessment [%] ABBOTT, 8 dai [5, 11]: 81.1%; Visual assessment [%] ABBOTT, 11 dai [5, 12]: 80.2%; Visual assessment [%] ABBOTT, 1 dbi [5, 13]: 100%; Visual assessment [%] ABBOTT, 4 dbi [5, 14]: 100%; Visual assessment [%] ABBOTT, 8 dbi [5, 15]: 96.7%; Visual assessment [%] ABBOTT, 11 dbi [5, 16]: 88.7%
O=C(NCCc1ncc(C(F)(F)F)cc1Cl)c1ccccc1C(F)(F)F [Fluopyram, N-{2-[3-chloro-5-(trifluoromethyl)-2-pyridyl]ethyl}-α,α,α-trifluoro-ortho-toluamide]	strongly inhibited the mycelial growth	97	49	–	–	2.3	18.2	18.2	52.5	44.7	44.7	10.9	53.0	53.0	–
OC(Cc1ccccc1Cl)(Cn1nc[nH]c1=S)C1(Cl)CC1 (stereo not shown) [(III) Prothioconazole, prothioconazole]	–	–	–	–	–	1.8	36.4	36.4	30.0	68.4	68.4	6.4	72.4	72.4	–
